The values that follow come from patent US20150080559A1, “Compositions Containing, Methods Involving, and Uses of Non-Natural Amino Acid Linked Dolastatin Derivatives” (priority 2011, published 2015).

pIC50: −log10 of the molar value. Read-outs that look alike come from different tables or passages of the source. Bounds are passed on as bounds.

One test has as its system BT474. The test is described as follows: In vitro inhibition of proliferation assay (WST-8), BT474. Format: cell-based. To be noted: 72 hr, read-out: IC50 Values after 72 hr drug treatment, BT474. The protocol:
(§1) At day 1, the cells were seeded. The media was aspirated and the T-225 culture flasks of cells was rinsed with 30 mL PBS −/. PBS was aspirated and 6 mL of 0.25% Trypsin-EDTA was added to each flask. The flasks were incubated at 37C, 5% CO2 for 2-5 minutes. Adherent cells were dislodged by hitting flask and trypsin was neutralized by adding 14 mL culture medium. The cell suspension was mixed and transferred to a 50 mL conical tube. The cells were spun down at 1200 rpm, 5 min, room temperature. The resultant cell pellet was resuspended in 12 mL of culture medium. The cells were counted in a hemacytometer. Cells were seeded at appropriate cell densities into 96-well flat-bottom, clear plates and incubated overnight at 37° C., 5% CO2 to allow cells to attach. Plating volume was 80 uL/well. 80 uL/well of culture medium was utilized as the “no cell” control.
(§2) Cell plating density examples include: • BT474 (high Her2)—20,000 cells/well in F12k/DMEM (50/50), 10% FBS, P/S • MDA-MB-468 (Her2 negative)—6,000 cells/well in F12k/DMEM (50/50), 10% FBS, P/S • HCC1954—5,000 cells/well in RPMI 1640, 10% FBS, P/S • SKOV-3—6,000 cells/well in RPMI 1640, 10% FBS, P/S • HT29—20,000 cells/well in McCoy's 5A, 10% FBS, P/S
(§3) At day 2, the test samples were added to the cells. The test samples were diluted in culture medium to a 9× stock concentration in Column 2 of a round-bottom 96-well plate. 3× serial dilutions were made from Column 2 to Column 11 with a multi-channel pipettor. 10 uL/well of the above samples was added in duplicate to the appropriate wells of the seeded plate. The total volume in the wells was about 90 uL/well. 10 uL/well of culture medium was added to avoid edge effects for sample wells. Media Control wells were included in the inner wells where no sample was added (just 10 uL/well of culture medium) to be used in proliferation calculations. The plates were incubated at 37° C., 5% CO2 for 72 hrs.
(§4) At day 5, proliferation readout occurred. […] The plates were measured for absorbance at OD 450 nm. […]
(Formazan colour is commonly taken as a measure of viable cells.)

The next test has as its system HCC1954. The test is described as follows: In vitro inhibition of proliferation assay (WST-8), HCC1954. Format: cell-based, human. Particulars: 72 hr, read-out: IC50 Values after 72 hr drug treatment, HCC1954. The protocol: as §1, §2
(§5) At day 2, the test samples were added to the cells. […]
as §4

The next test concerns LS513. The test is described as follows: In vitro inhibition of proliferation assay (WST-8), LS513. It counts as cell-based. To be noted: Data Set I, experiment Sep. 4, 2010; 72 hr; read-out: IC50 Values after 72 hr drug treatment, LS513. The protocol:
as §1
(§6) At day 2, the test samples were added to the cells. The test samples were diluted in culture medium to a 9× stock concentration in Column 2 of a round-bottom 96-well plate. 3× serial dilutions were made from Column 2 to Column 11 with a multi-channel pipettor. 10 uL/well of the above samples was added in duplicate to the appropriate wells of the seeded plate. The total volume in the wells was about 90 uL/well. […]
as §4

The next test concerns NCI-N87. The test can be described thus: In vitro inhibition of proliferation assay (WST-8), NCI-N87. Format: cell-based. Particulars: Data Set I, experiment Sep. 4, 2010; 72 hr; read-out: IC50 Values after 72 hr drug treatment, NCI-N87. The protocol: as §1, §6, §4
Another test relates to SKOV-3. The test can be described thus: In vitro inhibition of proliferation assay (WST-8), SKOV-3. Particulars: 72 hr, read-out: IC50 Values after 72 hr drug treatment, SKOV-3. Format: cell-based. The protocol:
as §1, §2, §3, §4

The next test concerns ZR-75-30. The test can be described thus: In vitro inhibition of proliferation assay (WST-8), ZR-75-30. It counts as cell-based. To be noted: Data Set I, experiment Sep. 4, 2010; 72 hr; read-out: IC50 Values after 72 hr drug treatment, ZR-75-30. The protocol:
as §1, §6, §4

The test system of a further test is MDA-MB-175. The test can be described thus: In vitro inhibition of proliferation assay (WST-8), MDA-MB-175. Format: cell-based. To be noted: Data Set I, experiment Sep. 13, 2010. The protocol: as §1, §6, §4
For a further test, the system named is HT29. The test is described as follows: In vitro inhibition of proliferation assay (WST-8), HT29. Particulars: Data Set II, experiment Sep. 24, 2010; 72 hr; read-out: IC50 Values after 72 hr drug treatment, HT29. It counts as cell-based. The protocol:
as §1, §2, §5, §4

Another test relates to MDA-MB-468. The test can be described thus: In vitro inhibition of proliferation assay (WST-8), MDA-MB-468. To be noted: Data Set II, experiment Oct. 8, 2010; 72 hr; read-out: IC50 Values after 72 hr drug treatment, MDA-MB-468. It counts as cell-based. The protocol:
as §1, §2, §5, §4

[1] abbreviates: Data Set I, experiment Sep. 4, 2010.
Setting [2] is: Data Set I, experiment Sep. 13, 2010.
Setting [3] is: Data Set II, experiment Oct. 8, 2010.

Take Dolastatin: the negative-log IC50 (pIC50) with BT474 (setting [1]) is 10.00; in the test on BT474 (setting [2]), 10.00; with BT474 (Data Set II, experiment Sep. 24, 2010) it was 8.60; in the test on HCC1954 (setting [1]), 10.22; with HCC1954 (setting [3]) it was 10.40; with LS513, 9.70. The negative-log IC50 (pIC50) in the test with NCI-N87 is under 7.52; with SKOV-3 (setting [1]), 9.70; in the test on SKOV-3 (setting [2]), 10.00; in the test on SKOV-3 (setting [3]) it was 9.70; with ZR-75-30, under 7.52; in the test with HT29, 8.40. The pIC50 in the test with MDA-MB-468 is over 11.00. Also, the “IC50 Values after 72 hr drug treatment, MDA-MB-175” value with MDA-MB-175 is reported as “no fit”.

Usually pIC50 stands for −log10 of the IC50, conventionally taken in molar units.
